The supplement of paper PMC10307832

Assays:
Experiment in all cases: relative viability (nuclei count vs DMSO), 5 days (fraction); higher = more cells survive
TGX 221 + Phenformin = compound: CC1=CN2C(=O)C=C(N=C2C(=C1)C(C)NC3=CC=CC=C3)N4CCOCC4 [TGX 221] + N=C(N)NC(=N)NCCc1ccccc1 [Phenformin] (partner 250 µM)
In short: (§1)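 One day after seeding in 1536-well plates, lung cancer cell lines were dosed by pin tool. Dosing was either single-drug or a fixed anchor-drug dose plus five library-drug doses (not always all listed) in √10 steps. After 5 days, nuclei were stained in one fix-and-stain step and counted on 4× images, and relative viability is the nuclei count of treated wells over that of vehicle wells, given as the median of duplicate plates.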

TGX 221 + Crizotinib = compound: CC1=CN2C(=O)C=C(N=C2C(=C1)C(C)NC3=CC=CC=C3)N4CCOCC4 [TGX 221] + C[C@@H](Oc1cc(-c2cnn(C3CCNCC3)c2)cnc1N)c1c(Cl)ccc(F)c1Cl [Crizotinib] (partner 1 µM)
In short: as §1

[1] = compound: O=C(CCCCCCNC(=O)c1cnc(N(c2ccccc2)c2ccccc2)nc1)NO [Ricolinostat] + Cc1cc(Nc2cc(N3CCN(C)CC3)nc(Sc3ccc(NC(=O)C4CC4)cc3)n2)n[nH]1 [Tozasertib] (partner 0.1 µM)
In short: as §1

[2] = compound: C1=CC=C(C(=C1)C2=CC=C(C=C2)C3=CSC4=C3C(=C(C(=O)N4)C#N)O)O + N=C(N)NC(=N)NCCc1ccccc1 [Phenformin] (partner 250 µM)
In short: as §1

Cell Line	relative viability (TGX 221 + Phenformin; first compound 0.08 µM)	relative viability (TGX 221 + Phenformin; first compound 0.253 µM)	relative viability (TGX 221 + Phenformin; first compound 0.8 µM)	relative viability (TGX 221 + Phenformin; first compound 2.53 µM)	relative viability (TGX 221 + Phenformin; first compound 8 µM)	relative viability (TGX 221 + Crizotinib; first compound 0.08 µM)	relative viability (TGX 221 + Crizotinib; first compound 0.253 µM)	relative viability (TGX 221 + Crizotinib; first compound 0.8 µM)	relative viability (TGX 221 + Crizotinib; first compound 2.53 µM)	relative viability (TGX 221 + Crizotinib; first compound 8 µM)	relative viability ([1]; first compound 0.253 µM)	relative viability ([1]; first compound 0.8 µM)	relative viability ([1]; first compound 2.53 µM)	relative viability ([2]; first compound 0.08 µM)	relative viability ([2]; first compound 0.253 µM)	relative viability ([2]; first compound 0.8 µM)	relative viability ([2]; first compound 2.53 µM)	relative viability ([2]; first compound 8 µM)	relative viability ([1]; first compound 0.08 µM)
NCI-H2023	0.431	0.373	0.397	0.39	0.288	0.594	0.532	0.689	0.591	0.463	0.373	0.244	0.188	0.342	0.351	0.429	0.466	0.37	–
SK-LU-1	0.542	0.502	0.498	0.491	0.477	0.836	0.809	0.901	0.825	0.803	0.273	0.285	0.194	0.378	0.44	0.538	0.639	0.566	0.321
NCI-H2347	0.427	0.385	0.389	0.234	0.213	0.67	0.666	0.635	0.701	0.542	0.47	0.513	0.425	0.265	0.429	0.496	0.342	0.419	0.419
HCC-15	0.482	0.471	0.483	0.451	0.497	0.821	0.783	0.852	0.772	0.811	0.35	0.233	0.233	0.407	0.516	0.496	0.494	0.387	0.349
HCC-44	0.157	0.212	0.212	0.201	0.177	0.83	0.794	0.875	0.758	0.733	0.984	0.862	0.537	0.166	0.164	0.138	0.21	0.208	1.01
NCI-H1355	0.439	0.465	0.439	0.419	0.433	1.02	1.07	1.01	0.913	0.887	0.558	0.483	0.477	0.396	0.487	0.445	0.422	0.396	0.6
NCI-H2405	0.386	0.405	0.379	0.44	0.338	0.792	0.834	0.769	0.757	0.671	0.752	0.677	0.731	0.266	0.381	0.385	0.445	0.37	0.693
EKVX	0.213	0.225	0.232	0.22	0.221	0.85	0.832	0.843	0.927	0.773	0.373	–	0.384	0.226	0.259	0.233	0.221	0.216	0.354
NCI-H1993	0.427	0.568	0.54	0.517	0.54	0.778	0.815	0.951	0.807	0.774	0.644	0.561	0.536	0.49	0.424	0.55	0.473	0.529	–
HOP-62	0.641	0.639	0.728	0.714	0.777	0.893	0.873	0.992	0.953	0.88	0.344	0.35	0.312	0.57	0.854	0.565	0.679	0.359	0.374
SK-MES-1	0.71	0.66	0.706	0.719	0.574	1.05	0.982	0.998	0.841	0.582	0.795	0.877	0.628	0.643	0.682	0.659	0.708	0.615	0.833
ABC-1	0.228	0.228	0.19	0.217	0.253	0.946	0.809	1.25	1.01	1.26	0.203	0.229	0.18	0.241	0.274	0.241	0.259	0.239	0.215
NCI-H1755	0.584	0.598	0.549	0.585	0.528	0.873	0.863	0.827	0.752	0.607	0.565	0.525	0.53	0.693	0.647	0.606	0.617	0.6	0.581
NCI-H838	0.607	0.534	0.496	0.471	0.428	0.833	0.77	0.783	0.699	0.51	0.275	0.238	0.212	0.316	0.641	0.538	0.54	0.543	0.255
NCI-H322M	0.761	0.735	0.715	0.758	0.682	0.945	1.03	0.95	0.823	0.911	0.504	0.517	0.497	0.69	0.751	0.776	0.871	0.865	–
NCI-H441	0.791	0.911	0.79	0.785	1.09	0.732	0.82	0.657	0.62	0.697	0.69	0.561	0.474	0.706	1.01	1.03	0.927	0.633	–
EMC-BAC-2	0.528	0.508	0.506	0.499	0.519	0.745	0.706	0.746	0.743	0.569	0.234	0.204	0.206	0.38	0.563	0.492	0.533	0.43	0.318
HARA	0.563	0.422	0.426	0.424	0.543	1.06	1.02	0.905	1.16	0.795	0.16	0.076	0.0848	0.323	0.542	0.433	0.431	0.425	0.106

Cell Line	relative viability (TGX 221 + Phenformin; first compound 0.08 µM)	relative viability (TGX 221 + Phenformin; first compound 0.253 µM)	relative viability (TGX 221 + Phenformin; first compound 0.8 µM)	relative viability (TGX 221 + Phenformin; first compound 2.53 µM)	relative viability (TGX 221 + Phenformin; first compound 8 µM)	relative viability (TGX 221 + Crizotinib; first compound 0.08 µM)	relative viability (TGX 221 + Crizotinib; first compound 0.253 µM)	relative viability (TGX 221 + Crizotinib; first compound 0.8 µM)	relative viability (TGX 221 + Crizotinib; first compound 2.53 µM)	relative viability (TGX 221 + Crizotinib; first compound 8 µM)	relative viability ([1]; first compound 0.253 µM)	relative viability ([1]; first compound 0.8 µM)	relative viability ([1]; first compound 2.53 µM)	relative viability ([2]; first compound 0.08 µM)	relative viability ([2]; first compound 0.253 µM)	relative viability ([2]; first compound 0.8 µM)	relative viability ([2]; first compound 2.53 µM)	relative viability ([2]; first compound 8 µM)	relative viability ([1]; first compound 0.08 µM)
NCI-H727	0.635	0.621	0.537	0.486	0.51	0.879	0.792	0.663	0.861	0.821	0.704	0.734	0.563	0.484	0.668	0.416	0.491	0.514	0.448
NCI-H1944	0.188	0.196	0.191	0.186	0.184	1.07	1.03	1.02	1.09	0.863	0.246	0.221	0.23	0.155	0.207	0.166	0.215	0.175	0.245
COR-L 105	0.514	0.45	0.569	0.572	0.412	0.883	0.748	0.967	0.728	0.519	0.325	0.3	0.352	0.47	0.649	0.348	0.401	0.402	–
201T	0.459	0.436	0.428	0.434	0.439	–	1.07	1.01	0.993	0.985	0.932	0.829	0.612	0.335	0.451	0.46	0.462	0.434	0.909
NCI-H460	0.508	0.466	0.53	0.536	0.467	0.754	0.811	1.05	0.896	0.64	0.46	0.558	0.186	0.165	0.557	0.427	0.561	0.107	0.549
LOU-NH91	0.679	0.74	0.692	0.784	0.674	0.796	0.75	0.746	0.735	0.655	0.639	0.595	0.528	0.716	0.726	0.655	0.616	0.63	0.571
NCI-H2170	0.421	0.413	0.464	0.431	0.362	1.11	1.2	1.19	0.987	1.14	0.61	0.622	0.723	0.38	0.423	0.441	0.403	0.375	0.758
LU99A	0.785	0.831	0.9	0.93	0.834	0.493	0.577	0.516	0.517	0.563	0.276	0.224	0.239	0.765	0.838	0.769	0.891	0.896	0.258
ChaGo-K-1	0.479	0.512	0.481	0.456	0.494	1.1	1.01	1.18	1.11	0.989	0.234	0.224	0.226	0.448	0.523	0.519	0.483	0.407	0.201
NCI-H358	0.355	0.31	0.296	0.382	0.324	0.556	0.535	0.661	0.633	0.395	0.0893	0.107	0.0955	0.25	0.39	0.373	0.353	0.283	0.0975
SW 1573	0.325	0.296	0.409	0.322	0.369	0.723	0.72	0.74	0.769	0.756	0.193	0.165	0.242	0.343	0.351	0.343	0.333	0.233	0.277
LK-2	0.382	0.474	0.498	0.348	0.567	0.252	0.212	0.235	0.213	0.269	0.181	0.202	0.174	–	0.466	0.376	0.661	0.245	0.181
NCI-H596	0.726	0.753	0.852	0.678	0.874	0.993	1.04	1	0.823	0.82	1.08	0.983	0.859	0.629	0.695	0.741	0.724	0.571	0.977
NCI-H1650	0.419	0.3	0.377	0.382	0.255	0.828	0.857	0.875	0.956	0.545	0.431	0.265	0.256	0.406	0.358	0.437	0.439	0.362	0.428
NCI-H1437	0.315	0.302	0.252	0.269	0.335	0.931	0.908	0.876	0.861	0.819	0.4	0.367	0.315	0.297	0.452	0.237	0.303	0.26	0.341
PC-3 [JPC-3]	0.463	0.459	0.469	0.47	0.477	0.988	0.991	1.04	0.912	0.994	0.84	0.851	0.771	0.452	0.454	0.44	0.488	0.516	–
NCI-H1651	0.283	0.265	0.437	0.316	0.286	–	0.834	0.865	0.839	0.753	0.744	0.633	0.436	0.272	0.336	0.398	0.365	0.278	0.658
